The source of these data is patent publication US20030229066A1, “Novel heterocyclic urea derivatives and their use as dopamine D3 receptor ligands” (priority 2001, published 2003).

Each structure is given as a SMILES string. pKi: −log10 of the molar value.

Assay [1] concerns the target T1, cloned human alpha-1A adrenergic receptors (α1a) (Homo sapiens, UniProt P35348).
T1 construct: expressed in transfected cells
T1 sequence (P35348 1-466): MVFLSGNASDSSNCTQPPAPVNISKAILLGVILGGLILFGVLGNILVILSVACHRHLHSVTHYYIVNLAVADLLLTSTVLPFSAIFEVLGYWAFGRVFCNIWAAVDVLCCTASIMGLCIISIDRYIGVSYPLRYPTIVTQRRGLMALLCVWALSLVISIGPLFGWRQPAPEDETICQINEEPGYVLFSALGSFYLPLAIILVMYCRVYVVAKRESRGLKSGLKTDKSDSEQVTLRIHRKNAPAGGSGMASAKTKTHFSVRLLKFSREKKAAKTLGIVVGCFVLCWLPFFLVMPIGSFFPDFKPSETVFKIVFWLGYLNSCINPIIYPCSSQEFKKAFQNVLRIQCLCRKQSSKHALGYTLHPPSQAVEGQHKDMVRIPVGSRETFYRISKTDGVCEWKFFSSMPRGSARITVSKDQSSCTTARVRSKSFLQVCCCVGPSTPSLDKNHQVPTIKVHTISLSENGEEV
Nature of the assay: [3H]Prazosin binding to cloned human alpha-1A adrenergic receptors expressed in CHO cells. The settings on record: for pKi: Table II, pairs of 6-fluoro and 6-trifluoromethyl benzo[b]thiophenes, read-out: halpha1Ki. From the text: [^3H]PRAZOSIN BINDING TO CLONED HUMAN ALPHA-1A ADRENERGIC RECEPTORS (α1a) EXPRESSED IN CHINESE HAMSTER OVARY CELLS (CHO)
This in vitro assay is designed as a screen to identify compounds displaying a affinity for the human α1a adrenoceptor subtype expressed in the membrane fragments of CHO cells. The assay-measures the ability of the test compounds to displace [^3H]prazosin from α1a sites.
Therefore, the binding of compounds to α1a adrenergic receptors is believed to be a good measure of a compound's potential to cause orthostatic hypotension and sedation as side effects. Prazosin is a potent antagonist of the human α1a-adrenoceptor subtype, which has been cloned and is expressed in the membrane fragments of CHO cells.
The cloning of the human α1a cDNA was accomplished first by screening a human prostate cDNA library (Clontech), from which a portion of the coding region was obtained. This DNA fragment was then used to screen a human leukocyte genomic library (Clontech), and the rest of the coding sequence was obtained. Later these two fragments were spliced together. The entire coding sequence was then fully sequenced including matching PCR sequence with original genomic coding sequence, thus ensuring splice sites were joined correctly (Schwinn et al., 1995). Once sequenced, the gene was subcloned into the expression vector pcDNA3 (Invitrogen). Plasmid DNA was then used for transfection into CHO cells and G418 resistant clones were isolated. A clone expressing high levels of the hα1a receptor (as determined by mRNA and receptor binding data) was chosen and pharmacologically characterized.
[7-methoxy-^3H]-Prazosin: 1.0 nM (NEN, NET-823) 70-87 Ci/mmol
A: 50 mM Tris HCl; 0.1% ascorbate, pH 7.7 (incubation buffer)
Total Binding=50 μl buffer A+50 μl [^3H]prazosin+100 μl membrane
Nonsp. Bd.=50 μl 10 μM phentolamine+50 μl [^3H]prazosin+100 μl membrane
Test Cpd.=50 μl compound+50 μl [^3H]prazosin+100 μl membrane
Compounds to be evaluated are weighed out to yield a 10 mM stock solution in DMSO in a 24 well polystyrene plate. This is diluted to a 0.5 mM stock in dH2O. Serial dilutions in Buffer A are made from which 50 μl additions to the plate are made in duplicate in order to achieve the final concentrations desired. Typically, one 96 well plate is used to evaluate 11 compounds at 4 concentrations (10^−6-10^−9 M) in duplicate. Total binding and nonspecific binding are determined in quadruplicate. Usually one standard is run with each assay.
[^3H]Prazosin is made up in Buffer A such that when 50 μl are added per well the final concentration is 1.0 nM in a final assay volume of 200 μl. The final concentration should be verified by running a sample in a scintillation counter prior to adding the [^3H]prazosin to the 96 well plate. Note: The radioactivity should be prepared just before the additions are made so that it is not allowed to sit on the bench for very long.
Incubation & Filtration: Once buffer, compounds, [^3H]prazosin and membrane have been added (and mixed), the 96 well plates are incubated for 40 min at 37° C. and spaced 3-5 min apart. At 40 min, the plates are filtered using a Tomtec Automated Cell Harvester. Filtration is immediately followed by washes of ice cold Buffer B (total vol. ˜7 ml).
Analysis of Results: Raw DPM and CPM data are captured on disk and are imported into one of several software packages (Graphpad Prism Ver 2.0, Excel) residing on the LAN. Specific binding is defined as the difference between total binding and the binding in the presence of 10 μM phentolamine. Total binding is less than 10% of the total added ligand. Software using one-site competition curve analysis is employed in the calculation of IC50 and Kj (Cheng-Prusoff equation, 1973). The top and bottom of the non-linear regression are held constant at 0% and 100% inhibition. The percent inhibition at each drug concentration is the mean of duplicate determinations.

The target in assay [2] is T2, cloned human dopamine D3 receptors (Homo sapiens, UniProt P35462).
T2 construct: expressed in transfected cells
T2 sequence (P35462 whole entry): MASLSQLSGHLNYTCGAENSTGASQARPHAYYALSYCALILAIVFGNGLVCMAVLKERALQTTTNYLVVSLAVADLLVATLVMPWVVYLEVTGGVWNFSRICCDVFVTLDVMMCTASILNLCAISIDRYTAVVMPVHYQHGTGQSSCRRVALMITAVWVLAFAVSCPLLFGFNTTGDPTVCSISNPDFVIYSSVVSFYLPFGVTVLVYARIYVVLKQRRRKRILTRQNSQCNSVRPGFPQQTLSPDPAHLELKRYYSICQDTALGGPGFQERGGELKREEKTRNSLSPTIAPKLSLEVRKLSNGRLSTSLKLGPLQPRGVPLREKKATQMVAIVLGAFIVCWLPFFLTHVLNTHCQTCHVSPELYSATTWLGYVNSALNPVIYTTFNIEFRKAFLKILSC
Nature of the assay: [N-Methyl-3H]Spiroperidol binding to cloned human dopamine D3 receptors. The conditions noted are these: Table III; read-out: d3Ki. In short, it runs like this: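 Competition binding on homogenized CHO cells stably expressing human D3, with 0.4 nM [3H]NMSP (final), 37 °C for 30 min, filtration and scintillation counting. Nonspecific binding defined with 3 μM S(-)-eticlopride; typically eight test concentrations, 10^−5–10^−8 M final. Ki by Cheng-Prusoff from one-site competition fits, duplicate means.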

`O=C(NCCCCN1CCN(c2csc3cc(C(F)(F)F)ccc23)CC1)NC1CCCCC1` [compound 816001]: the pKi in assay [1] is 7.08; in assay [2], 8.33.

Consider `O=C(NCCCCN1CCN(c2csc3cc(C(F)(F)F)ccc23)CC1)Nc1ccc(C(F)(F)F)cc1` [compound 816002], for which the “halpha1 % I” value in assay [1] (@1 μM) was 30.2% Inh @1 μM. The pKi is 6.36 in assay [1] and 7.90 in assay [2].

In the case of `O=C(NCCCCN1CCN(c2csc3cc(C(F)(F)F)ccc23)CC1)Nc1cccc(F)c1` [compound 816003], the values for the pKi in assay [1] and in assay [2] were 7.25 and 8.80, respectively.

For `O=C(NCCCCN1CCN(c2csc3cc(C(F)(F)F)ccc23)CC1)Nc1ccccc1` [compound 816005], the pKi in assay [1] was 7.25; in assay [2], 8.60.
